The nature of assay [1]: Selectivity ratio of Ki for human carbonic anhydrase 2 to Ki for Caenorhabditis elegans carbonic anhydrase 4b.
The nature of assay [2]: Inhibition of Caenorhabditis elegans carbonic anhydrase 4b by CO2 hydration assay.

As usually defined, the Ki is a dissociation constant, usually derived from enzyme kinetics or from competition with a known ligand. High values mean lower affinity, low ones higher affinity.

Regarding `NNC(=O)c1[nH]c2ccc(S(N)(=O)=O)cc2c1-c1ccc(Cl)cc1`, the Ratio Ki in assay [1] was found to be 1.78. Besides, the inhibitory constant (Ki) in assay [2] stood at 6.5 nM.

For `Cc1ccccc1-c1c(C(=O)NN)[nH]c2ccc(S(N)(=O)=O)cc12`, in assay [1], the Ratio Ki worked out at 0.03. In assay [2], the inhibitory constant (Ki) is 326 nM.

For `NNC(=O)c1[nH]c2ccc(S(N)(=O)=O)cc2c1-c1ccc(F)cc1`, in assay [1], the Ratio Ki amounted to 2.58. This compound showed a Ki in assay [2] of 6 nM.

As for `NNC(=O)c1[nH]c2ccc(S(N)(=O)=O)cc2c1-c1c(F)c(F)c(F)c(F)c1F`, the Ratio Ki in assay [1] turned out to be 0.02. In assay [2], this compound had an inhibitory constant (Ki) of 260 nM.

For `NNC(=O)c1[nH]c2ccc(S(N)(=O)=O)cc2c1-c1ccccc1Cl`, the Ratio Ki in assay [1] was 0.1. The same compound registered a Ki in assay [2] of 372 nM.

With `NNC(=O)c1[nH]c2ccc(S(N)(=O)=O)cc2c1-c1cccc(Br)c1`, the Ratio Ki in assay [1] worked out at 4.03. For the same compound, in assay [2], the Ki worked out at 13.4 nM.

In the case of `COc1cccc(-c2c(C(=O)NN)[nH]c3ccc(S(N)(=O)=O)cc23)c1`, the Ratio Ki in assay [1] was found to be 0.02. For the same compound, affinity in assay [2] was put at a Ki of 330 nM.

In the case of `Cc1ccc(-c2c(C(=O)NN)[nH]c3ccc(S(N)(=O)=O)cc23)cc1`, in assay [1], the Ratio Ki amounted to 4.95. For the same compound, the Ki in assay [2] came to 12.2 nM.

On to `NNC(=O)c1[nH]c2ccc(S(N)(=O)=O)cc2c1-c1cccc(Cl)c1`, for which the Ratio Ki in assay [1] was 0.91. This compound also returned an inhibition constant Ki in assay [2] of 10.1 nM.

On to `NNC(=O)c1[nH]c2ccc(S(N)(=O)=O)cc2c1-c1ccc(Br)cc1`, for which, in assay [1], the Ratio Ki turned out to be 3.54. The same compound showed a Ki in assay [2] of 11.5 nM.

On to `NNC(=O)c1[nH]c2ccc(S(N)(=O)=O)cc2c1-c1ccccc1F`, for which, in assay [1], the Ratio Ki turned out to be 2.88. The Ki in assay [2] was determined as 12.5 nM.

On to `Cc1cccc(-c2c(C(=O)NN)[nH]c3ccc(S(N)(=O)=O)cc23)c1`, for which the Ratio Ki in assay [1] stood at 3.63. Moreover, the inhibitory constant (Ki) in assay [2] worked out at 13.3 nM.

As to `NNC(=O)c1[nH]c2ccc(S(N)(=O)=O)cc2c1-c1cccc(F)c1`, in assay [1], the Ratio Ki came to 0.86. The same compound had a Ki in assay [2] of 9.9 nM.

In the case of `NNC(=O)c1[nH]c2ccc(S(N)(=O)=O)cc2c1-c1ccccc1Br`, the Ratio Ki in assay [1] worked out at 0.18. Besides, the Ki in assay [2] was determined as 260 nM.

Values taken from ChEMBL document CHEMBL1153906 (Bioorg Med Chem, 2009).
